Assay results from paper PMC3608651, “A Broad Profile of Co-Dominant Epitopes Shapes the Peripheral Mycobacterium tuberculosis Specific CD8+ T-Cell Immune Response in South African Patients with Active Tuberculosis” (PLoS ONE, 2013).
Where two headings read alike, the source gives them in different places.

Assays:
Type in all cases: binding
[1] = target: T1, HLA-A*24:02 (Homo sapiens, UniProt P04439, D101N/D140Y/D185E/E176V/E190D/F33S/G103R/G107R/I119L/I121M/I306V/K335N/L105A/L180Q/L300P/N151K/N90K/Q86E/Q94H/R106L/R138H/R89G/T104I/T345S/V100E/W191G/Y123F); conditions: duplicated experiments, positive binder >40%
[2] = target: T1, HLA-A*24:02
[3] = target: T1, HLA-A*24:02; conditions: time points 0-8 h
[4] = target: T2, HLA-A*30:02 (Homo sapiens, UniProt P04439, D101N/D140H/D185E/E176R/F33S/G80R/H175R/K168Q/Q94H/R138E/R41S/V100E); conditions: duplicated experiments, positive binder >40%
[5] = target: T2, HLA-A*30:02
[6] = target: T2, HLA-A*30:02; conditions: time points 0-8 h
[7] = target: T3, HLA-A*02:01 (Homo sapiens, UniProt P04439, D140Y/D185E/D98H/E176V/E277Q/G131W/G231S/I119V/I121R/I166T/I218V/L300P/L318F/N151K/N90K/P208A/P217A/Q86G/Q94H/R138H/R169H/T345S)
[8] = target: T3, HLA-A*02:01; conditions: […]; peptide quantity for 50% binding saturation
[9] = target: T3, HLA-A*02:01; conditions: time points 0-8 h; time when 50% of peptide has dissociated
[10] = target: HLA-A*30:01 (Homo sapiens, UniProt P04439, D140H/D185E/E176W/F33S/G80R/H175R/K168Q/R138E/R41S); conditions: duplicated experiments, positive binder >40%
[11] = target: HLA-B*07:02 (Homo sapiens, UniProt P01889); conditions: percent relative the binding of positive control peptide […]; duplicated experiments; positive binder >40%
[12] = target: T4, HLA-B*58:01 (Homo sapiens, UniProt P01889, A329T/C349S/D201E/D98Y/E176V/E187L/E204Q/E69T/G107R/I218V/I90N/K202T/L105A/L119I/N104I/N87E/Q89R/Q94S/R106L/R155S/R180L/R86G/S101N/S121R/S35A/S48A/T118I/V127L/V306I/V36M/Y140S/Y91M); conditions: duplicated experiments, positive binder >40%
[13] = target: T4, HLA-B*58:01
[14] = target: HLA-C*07:01 (Homo sapiens, UniProt P10321, K90N/S123Y); conditions: duplicated experiments, positive binder >40%
[15] = target: HLA-A*68:01 (Homo sapiens, UniProt P04439, A269V/D185E/E176V/E277Q/E87N/F33Y/G231S/I121M/I166T/I218V/L180W/L300P/L318F/N151K/P208A/P217A/Q86R/R169H/T345S); conditions: duplicated experiments, positive binder >40%
[16] = target: T4, HLA-B*58:01; conditions: time points 0-8 h
[17] = percent relative the binding of positive control peptide […]
[18] = percent relative the binding of positive control peptide […], plate-bound monomer 0.5 µg/ml, duplicated experiments, positive binder >40%

Substance	Bind A*24:02 [1, 17]	Aff A*24:02 (ED50) [2]	O-rate A*24:02 (t1/2) [3]	Bind A*30:02 [4, 17]	Aff A*30:02 (ED50) [5]	O-rate A*30:02 (t1/2) [6]	Bind A*02:01 [7, 18]	Bind A*30:01 [10, 17]	Bind B*07:02 [11]	Bind B*58:01 [12, 17]	Aff B*58:01 (ED50) [13]	Bind C*07:01 [14, 17]	Bind A*68:01 [15, 17]	also measured
MYNYPAMLD [Rv0288_5–13m2]	60%	3e-08 M	24 min	59%	2e-06 M	0.7 h	–	–	–	–	–	–	–	–
IMYNYPTML [Rv0288_4–12m1]	43%	8e-07 M	30 min	15%	–	–	88%	28%	7%	37%	0.0003 M	5%	–	Aff A*02:01 (ED50) [8]: 0.4 µM; O-rate A*02:01 (t1/2) [9]: 4 h
AYQGVQQKW [Rv3875_50–58]	–	–	24 min	–	–	–	–	–	10%	–	–	–	–	Bind A*02:01 ([7]; percent relative the binding of positive control peptide FLPSDFFPSV, plate-bound monomer 0.5 µg/ml, duplicated experiments, positive binder >40%): 0%; Bind A*24:02 ([1]; percent relative the binding of positive control peptide RYLKDQQLL): 60%; Aff A*24:02 (ED50) ([2]; peptide titrated 10−4 to 10−9 M): 1e-08 M; Bind A*30:01 ([10]; percent relative the binding of positive control peptide KTKDIVNGL): 0%; Bind A*30:02 ([4]; percent relative the binding of positive control peptide KIQNFRVYY): 33%; Bind A*68:01 ([15]; percent relative the binding of positive control peptide KTGGPIYKR): 6%; Bind B*58:01 ([12]; percent relative the binding of positive control peptide IAMESIVIW): 35%; Bind C*07:01 ([14]; percent relative the binding of positive control peptide KYFDEHYEY): 0%
TYKW ETFLT	118%	2e-06 M	30 min	13%	–	–	36%	0%	3%	0%	–	0%	4%	–
KAGCQTYKW	140%	7E -08 M	114 min	45%	–	–	22%	13%	9%	193%	3E -08 M	31%	25%	O-rate B*58:01 (t1/2) [16]: 8 h
QWLSANRAV	110%	2e-06 M	24 min	120%	7E -08 M	1.2 h	21%	39%	25%	0%	–	11%	13%	–
QIMYNYPTM [Rv0288_3–11m1]	40%	2e-06 M	30 min	23%	–	–	51%	12%	5%	9%	–	–	–	Aff A*02:01 (ED50) [8]: 3 µM; O-rate A*02:01 (t1/2) [9]: 0.7 h
SMAGSSAMI	52%	2E -07 M	24 min	45%	9e-08 M	1.3 h	–	0%	14%	95%	2E -07 M	0%	0%	Bind A*02:01 [7]: 81; O-rate B*58:01 (t1/2) [16]: 1.6 h
